Source: patent US10760052B2, “Method of inhibiting tau phosphorylation” (priority 2012, dated 2020)

Biological target: T1, mu opiate receptor (MOR) (Rattus norvegicus, UniProt P33535)
T1 construct: from tissue; host or cells: striatum (membrane preparation)
Format: biochemical
Conditions: for Concentration of FLNA-Binding Compound as Agonist 0.1 μM / Concentration of FLNA-Binding Compound as Agonist 1 μM / Concentration of FLNA-Binding Compound as Agonist 1 μM + BFNA: [35S]GTPγS binding to Gαo in striatal membranes; for Concentration of FLNA-Binding Compound as Agonist 0.1 μM: compound 0.1 μM; for Concentration of FLNA-Binding Compound as Agonist 1 μM: compound 1 μM; for Concentration of FLNA-Binding Compound as Agonist 1 μM + BFNA: compound 1 μM plus 1 μM β-funaltrexamine (MOR antagonist)
Procedure: To assess the mu opiate receptor (MOR) agonist activity of positive compounds from the FLNA screening, compounds were tested in a [^35S]GTPγS binding assay using striatal membranes. […] This assay measures a functional consequence of receptor occupancy at one of the earliest receptor-mediated events. The assay permits for traditional pharmacological parameters of potency, efficacy and antagonist affinity, with the advantage that agonist measures are not subjected to amplification or other modulation that may occur when analyzing parameters further downstream of the receptor.
Thus, striatal tissue was homogenized in 10 volumes of ice cold 25 mM HEPES buffer, pH 7.4, which contained 1 mM EGTA, 100 mM sucrose, 50 μg/ml leupeptin, 0.04 mM PMSF, 2 μg/ml soybean trypsin inhibitor and 0.2% 2-mercaptoethanol. The homogenates were centrifuged at 800×g for 5 minutes and the supernatants were centrifuged at 49,000×g for 20 minutes.
The resultant striatal membrane preparation (200 μg) was admixed and maintained (incubated) at 30° C. for 5 minutes in reaction buffer as above that additionally contained 1 mM MgCl2 and 0.5 nM [^35S]GTPγS (0.1 μCi/assay, PerkinElmer Life and Analytical Sciences) in a total volume of 250 μl and continued for 5 minutes in the absence or presence of 0.1-10 μM of an assayed compound of interest. The reaction was terminated by dilution with 750 μl of ice-cold reaction buffer that contained 20 mM MgCl2 and 1 mM EGTA and immediate centrifugation at 16,000×g for 5 minutes.
Normal rabbit serum (1 μl) was added to 1 ml of lysate and incubated at 25° C. for 30 minutes. Nonspecific immune complexes were removed by incubation with 25 μl of protein A/G-conjugated agarose beads at 25° C. for 30 minutes followed by centrifugation at 5,000×g at 4° C. for 5 minutes. The supernatant was divided and separately incubated at 25° C. for 30 minutes with antibodies raised against Gαo proteins (1:1,000 dilutions).
The immunocomplexes so formed were collected by incubation at 25° C. for 30 minutes with 40 μl of agarose-conjugated protein A/G beads and centrifugation at 5,000×g at 4° C. for 5 minutes. The pellet was washed and suspended in buffer containing 50 mM Tris-HCl, pH 8.0, and 1% NP-40. The radioactivity in the suspension was determined by liquid scintillation spectrometry.

T1 sequence (P33535 whole entry): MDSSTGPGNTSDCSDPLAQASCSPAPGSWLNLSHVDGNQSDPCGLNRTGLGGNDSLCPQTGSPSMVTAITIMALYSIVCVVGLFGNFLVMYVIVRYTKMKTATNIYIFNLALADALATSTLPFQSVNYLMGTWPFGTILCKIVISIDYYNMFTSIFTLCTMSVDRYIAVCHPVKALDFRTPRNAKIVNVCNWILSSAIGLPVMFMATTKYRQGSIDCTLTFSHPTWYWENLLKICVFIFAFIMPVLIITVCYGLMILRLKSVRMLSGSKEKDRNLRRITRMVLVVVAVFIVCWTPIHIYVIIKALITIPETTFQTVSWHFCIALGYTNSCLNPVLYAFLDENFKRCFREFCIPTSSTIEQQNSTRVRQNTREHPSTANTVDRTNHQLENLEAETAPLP

| Structure (SMILES) | % DAMGO (0.1 μM) | % DAMGO (1 μM) | % DAMGO + BFNA | Concentration of FLNA-Binding Compound as Agonist 0.1 μM | Concentration of FLNA-Binding Compound as Agonist 1 μM | Concentration of FLNA-Binding Compound as Agonist 1 μM + BFNA |
| --- | --- | --- | --- | --- | --- | --- |
| CC1CCC(C(C)C)C(OCC(O)CN2CCN(CCc3ccccc3)CC2)C1 (stereo not drawn) [Compound A0020] | 100.9% | 88.7% | 194.2% | 168.6% | 217.4% | 67.4% |
| CC1CCCC(OCC(O)CN2CC(C)OC(C)C2)C1 (stereo not drawn) [Compound A0021] | 79.8% | 112.4% | 34.9% | 133.3% | 275.3% | 12.1% |
| CC1CCC(C)C(OCC(O)CN2CC(C)OC(C)C2)C1 (stereo not drawn) [Compound A0022] | 90.0% | 80.9% | 53.7% | 154.1% | 216.0% | 28.0% |
| CC1CN(CC(O)COc2ccccc2)CC(C)O1 (stereo not drawn) [Compound A0025] | 33.2% | 54.5% | 198.5% | 58.6% | 138.7% | 52.2% |
| CC1CCC(C(C)C)C(OCC(O)CN2CCN(CCCN3CCOCC3)CC2)C1 (stereo not drawn) [Compound A0026] | 79.7% | 70.7% | 459.3% | 140.7% | 179.8% | 120.8% |
| Cc1ccc(C(C)C)c(OCC(O)CN2CC(C)OC(C)C2)c1 (stereo not drawn) [Compound A0028] | 81.3% | 73.8% | 443.7% | 143.6% | 187.7% | 116.7% |
| CC1CN(CC(O)COc2ccccc2C(C)C)CC(C)O1 (stereo not drawn) [Compound A0029] | 98.4% | 81.2% | 84.8% | 173.8% | 206.5% | 22.3% |
| Cc1cccc(OCC(O)CN2CC(C)OC(C)C2)c1 (stereo not drawn) [Compound A0030] | 75.5% | 113.2% | 628.1% | 133.4% | 287.8% | 165.2% |
| CC1CCC(C(C)C)C(OCC(O)CN2CCN(CCN3CCCCC3)CC2)C1 (stereo not drawn) [Compound A0031] | 100.9% | 116.8% | 573.8% | 178.2% | 297.0% | 150.9% |
| CC1CCC(C(C)C)C(OCC(O)CN2CC(C)OC(C)C2)C1 (stereo not drawn) [Compound A0032-1] | 95.5% | 117.6% | 303.8% | 187.4% | 324.5% | 224.5% |
| CCN(CC)CC(O)COC1CC(C)CCC1C(C)C (stereo not drawn) [Compound A0032] | 115.6% | 93.4% | 180.0% | 226.9% | 257.8% | 133.0% |
| CC1CCC(C(C)C)C(OCC(CN2CC(C)OC(C)C2)NCc2ccccc2)C1 (stereo not drawn) [Compound A0033] | 79.4% | 92.2% | 159.9% | 155.8% | 254.6% | 118.2% |
| CC1CCC(C(C)C)C(OCC(O)CN2CCCC2=O)C1 (stereo not drawn) [Compound A0035] | 61.5% | 57.5% | 119.9% | 120.6% | 158.8% | 88.6% |
| CC1CCC(C(C)C)C(OCC(O)CN2CCCCC2=O)C1 (stereo not drawn) [Compound A0036] | 73.4% | 60.7% | 85.5% | 144.1% | 167.5% | 63.2% |
| CC1CCC(C(C)C)C(OCC(O)CN(C(C)C)C(C)C)C1 (stereo not drawn) [Compound A0037] | 90.7% | 85.6% | 141.5% | 177.9% | 236.2% | 104.6% |
| CC1CCC(C(C)C)C(OCC(O)Cn2cccc2)C1 (stereo not drawn) [Compound A0038] | 90.1% | 85.0% | 144.8% | 176.7% | 234.5% | 107.0% |
| CC1CCC(C(C)C)C(OCC(O)CN2CCc3ccccc3C2)C1 (stereo not drawn) [Compound A0040] | 23.5% | 54.0% | 22.6% | 46.1% | 149.0% | 16.7% |
